Assays:
Type in all cases: cell-based
[1] = tested on: rac1b mRNA in SH-SY5Y cells; experiment: Induction of rac1b splicing by oxidative stress, nested PCR of rac1b; conditions: 24 hours, subtoxic concentrations
Method: (§1) To test whether ROS production may affect the rac1/rac1b ratio SH-SY5Y cells were exposed to various ROS-inducing agents at the indicated concentrations for 24 hours and cell viability was determined using a LDH assay (Cytotox96, Promega).
(§2) SH-SY5Y cells were plated in 24 well plates (ATGC, France) at the initial density of 3*10^5 cells/well. After 24 hours, cells were treated with various ROS-inducing agents at the indicated concentrations. After 24 h incubation, a LDH assay was conducted to reveal cell viability and cells were processed for RNA extraction using Trizol.
(§3) To test the effect of ROS producing agents TBH and 6-OHDA on mRNA levels of rac1 and rac1b, SH-SY5Y cells were exposed to various ROS-inducing agents at the indicated concentrations for 24 hours and rac1 and rac1b were either coamplified using primers nm—006908_F1 and nm—006908_R1, or rac1b was specifically amplified in a nested PCR approach that sequentially used primers nm—006908_F1 and nm—006908_R1, then primers nm—006908_F2 and nm—006908_R1. GAPDH was amplified as control.

[2] = tested on: rac1 mRNA in SH-SY5Y cells; experiment: Effect of oxidative stress on rac1 levels, PCR of rac1; conditions: 24 hours
Method: as §1, §2, §3

[3] = tested on: rac1b mRNA in rat primary cortical cells; experiment: Induction of rac1b splicing by Abeta, nested PCR of rac1b mRNA; conditions: rat cortical cells exposed to Abeta for 24 hours; observed at 11.25 and 22.5 μM; two independent cultures
Method: Rat primary cortical cell cultures are sensitive to Abeta toxicity, the neurotoxicity of which involves different mechanisms such as calcium homeostasis dysregulation, accumulation of ROS, secondary excitotoxicity and caspase activation (Zhang et al, J Neurochem 1996, 67 (4) 1595-1606). Abeta peptide is dissolved in 100% HFIP (1,1,1,3,3,3-hexafluoro-2-propanol), then dryed out and resuspended in 100% DMSO and rediluted in DMEM/F12 without phenol red. The solution maturates by incubation at 37° C. during 72 h and Aβ oligomers are then added on 7 days cultures for 24 h. After 24 h incubation, cells were processed for RNA extraction using Trizol. A nested PCR approach was used for the amplification rac1b using the following primers: nm—006908_F1: […] (SEQ ID NO 9), nm—006908_R1: TGGCATTGAGTGCGAAGGC (SEQ ID NO 10), nm—006908_F2: AAAGACAAGCCGATTGCCG (SEQ ID NO 11). Rac1 was amplified following the first PCR of the protocol described below using primers nm—006908_F1 and nm—006908_R1. In these conditions, rac1b was not detected on gel due to its low quantity after single PCR amplification and was easily detected using primers nm—006908_F2 and nm—006908_R1 in the nested PCR. […]

Molecule	mRNA levels of rac1b [1]	mRNA levels of rac1 [2]	mRNA levels of rac1b [3]
NCCc1cc(O)c(O)cc1O [6-OHDA, 6-hydroxydopamine]	dose dependent accumulation of rac1b	rac1 levels are not altered	–
CC(C)(C)OO [TBH, t-butyl hydroperoxide]	dose dependent accumulation of rac1b	rac1 levels are not altered	–
Abeta: fragment of Abeta42 containing the aminoacids 25 to 35 that reproduces the toxic mechanisms of Aβ42 (GSNKGAIIGLM; Amyloid-beta protein 42; UniProt P05067 696-706, looked up, fragment)	–	–	dose dependent accumulation of rac1b mRNA
